Reference: the supplement of paper PMC10307832

Experiments:
Assay in all cases: relative viability (nuclei count vs DMSO), 5 days (fraction); higher = more cells survive
RU-SKI 43 + Pictilisib = compound: CC[C@@H](C)CNCC(=O)N1CCC2=C([C@@H]1COC3=CC=CC(=C3)C)C=CS2 [RU-SKI 43] + CS(=O)(=O)N1CCN(Cc2cc3nc(-c4cccc5[nH]ncc45)nc(N4CCOCC4)c3s2)CC1 [Pictilisib] (partner 1 µM)
Outline: (§1)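 Lung cancer cell lines were pin-tool dosed in 1536-well plates on the day after seeding, with either a lone drug or a fixed anchor-drug dose plus five library-drug doses (not always all listed) in √10 steps. Nuclei were counted on 4× images after 5 days. Relative viability is the ratio of treated-well to vehicle-well nuclei counts, with each value a median of duplicate plates.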

MK-8033 + Phenformin = compound: Cn1cc(-c2cnc3ccc4ccc(CS(=O)(=O)NCc5ccccn5)cc4c(=O)c3c2)cn1 [MK-8033] + N=C(N)NC(=N)NCCc1ccccc1 [Phenformin] (partner 250 µM)
Outline: as §1

Irinotecan + Alpelisib = compound: CCc1c2c(nc3ccc(OC(=O)N4CCC(N5CCCCC5)CC4)cc13)-c1cc3c(c(=O)n1C2)COC(=O)[C@]3(O)CC [Irinotecan] + Cc1nc(NC(=O)N2CCC[C@H]2C(N)=O)sc1-c1ccnc(C(C)(C)C(F)(F)F)c1 [Alpelisib] (partner 2 µM)
Outline: as §1

RU-SKI 43 + Trametinib = compound: CC[C@@H](C)CNCC(=O)N1CCC2=C([C@@H]1COC3=CC=CC(=C3)C)C=CS2 [RU-SKI 43] + CC(=O)Nc1cccc(-n2c(=O)n(C3CC3)c(=O)c3c(Nc4ccc(I)cc4F)n(C)c(=O)c(C)c32)c1 [Trametinib] (partner 0.02 µM)
Outline: as §1

Cell Line | relative viability (RU-SKI 43 + Pictilisib; first compound 0.1 µM) | relative viability (RU-SKI 43 + Pictilisib; first compound 0.3162 µM) | relative viability (RU-SKI 43 + Pictilisib; first compound 1 µM) | relative viability (RU-SKI 43 + Pictilisib; first compound 3.162 µM) | relative viability (RU-SKI 43 + Pictilisib; first compound 10 µM) | relative viability (MK-8033 + Phenformin; first compound 0.02 µM) | relative viability (MK-8033 + Phenformin; first compound 0.06325 µM) | relative viability (MK-8033 + Phenformin; first compound 0.2 µM) | relative viability (MK-8033 + Phenformin; first compound 0.6325 µM) | relative viability (MK-8033 + Phenformin; first compound 2 µM) | relative viability (Irinotecan + Alpelisib; first compound 2 µM) | relative viability (Irinotecan + Alpelisib; first compound 6.325 µM) | relative viability (Irinotecan + Alpelisib; first compound 20 µM) | relative viability (RU-SKI 43 + Trametinib; first compound 0.1 µM) | relative viability (RU-SKI 43 + Trametinib; first compound 0.3162 µM) | relative viability (RU-SKI 43 + Trametinib; first compound 1 µM) | relative viability (RU-SKI 43 + Trametinib; first compound 3.162 µM) | relative viability (RU-SKI 43 + Trametinib; first compound 10 µM) | relative viability (Irinotecan + Alpelisib; first compound 0.6325 µM)
201T | 0.71 | 0.544 | 0.737 | 0.662 | 0.67 | 0.499 | 0.448 | 0.39 | 0.436 | 0.469 | 0.87 | 0.465 | 0.331 | 0.709 | 0.717 | 0.776 | 0.789 | 0.749 | 
A549 | 0.511 | 0.742 | 0.594 | 0.439 | 0.384 | 0.221 | 0.157 | 0.172 | 0.148 | 0.193 | 0.642 | 0.207 | 0.0613 |  |  |  |  |  | 0.776
A-427 | 0.83 | 0.66 | 0.878 |  | 0.675 | 0.308 | 0.371 | 0.289 | 0.325 | 0.374 | 0.19 | 0.176 | 0.185 | 0.718 | 0.694 | 0.788 | 0.744 | 0.706 | 
ABC-1 | 0.676 | 0.842 | 0.753 | 0.701 | 0.772 | 0.202 | 0.219 | 0.227 | 0.281 | 0.211 | 0.654 | 0.439 | 0.362 |  |  |  |  |  | 
BEN | 0.642 | 0.546 | 0.791 | 0.528 | 0.584 | 0.288 | 0.239 | 0.269 | 0.233 | 0.255 | 0.771 | 0.319 | 0.372 | 0.967 | 1.12 | 1.06 | 1.11 | 1.01 | 1.11
CAL-12T | 0.772 | 0.334 | 0.624 | 0.397 | 0.461 | 0.56 | 0.518 | 0.444 | 0.697 | 0.545 | 1.19 | 0.422 | 0.309 | 0.306 | 0.242 | 0.316 | 0.259 | 0.351 | 1.08
COR-L23 | 0.754 | 0.756 | 0.897 | 0.986 | 0.738 | 0.41 | 0.422 | 0.402 | 0.432 | 0.421 | 0.238 | 0.158 | 0.119 | 0.611 | 0.598 | 0.672 | 0.577 | 0.423 | 0.324
COR-L 105 | 0.436 | 0.361 | 0.377 | 0.379 | 0.364 | 0.523 | 0.395 | 0.463 | 0.499 | 0.476 | 1.18 | 0.648 | 0.444 | 0.404 | 0.334 | 0.41 | 0.414 | 0.397 | 1.08
Calu-6 | 0.918 | 1.14 | 0.977 | 0.912 | 0.722 |  |  |  |  |  | 0.543 | 0.291 | 0.119 |  |  |  |  |  | 0.826
ChaGo-K-1 | 1.07 | 0.75 | 1.12 | 0.435 | 0.495 | 0.477 | 0.479 | 0.435 | 0.512 | 0.5 |  |  |  | 0.921 | 1.01 | 0.899 | 0.941 | 0.906 | 
EBC-1 | 0.345 | 0.283 | 0.429 | 0.316 | 0.196 |  |  |  |  |  | 0.387 | 0.385 | 0.161 |  |  |  |  |  | 0.621
EKVX | 0.395 | 0.422 | 0.392 | 0.482 | 0.386 | 0.222 | 0.211 | 0.238 | 0.22 | 0.254 | 0.766 | 0.33 | 0.205 | 0.275 | 0.312 | 0.268 | 0.349 | 0.315 | 1.03
EMC-BAC-2 | 0.516 | 0.518 | 0.561 | 0.565 | 0.511 | 0.554 | 0.509 | 0.531 | 0.556 | 0.494 | 0.28 | 0.165 | 0.181 | 0.857 | 0.9 | 0.939 | 0.861 | 0.749 | 0.483
EPLC-272H | 0.316 | 0.315 | 0.404 |  | 0.291 | 0.347 | 0.228 | 0.359 | 0.325 | 0.331 | 0.203 | 0.183 | 0.267 | 0.294 | 0.294 | 0.552 | 0.296 | 0.278 | 0.44
H3255 | 0.435 | 0.412 | 0.512 | 0.494 | 0.455 | 0.341 | 0.364 | 0.335 | 0.326 | 0.37 | 0.409 | 0.321 | 0.272 | 0.664 | 0.682 | 0.625 | 0.578 | 0.588 | 0.665
HARA | 0.524 | 0.512 | 0.435 | 0.458 | 0.318 | 0.477 | 0.406 | 0.396 | 0.374 | 0.422 | 0.211 | 0.215 | 0.177 | 0.507 | 0.806 | 1.02 | 0.936 | 0.561 | 0.557
